Test results: the NIST ThermoML archive (doi:10.1016/j.jct.2014.06.004)
Numbers after ± are expanded uncertainties.

Tests used:
[1] = 100 kPa, Liquid; for speed of sound: Frequency=3 MHz, Sing-around technique in a fixed-path interferometer; for mass density: Vibrating tube method
[2] = refractive index (Na D-line) (dimensionless); details: 101.33 kPa, Liquid, Standard Abbe refractometry
[3] = refractive index (Na D-line) (dimensionless); xn = mol fraction of the nth substance listed; details: 100 kPa, Liquid, Standard Abbe refractometry
[4] = xn = mol fraction of the nth substance listed; details: 100 kPa, Liquid; for speed of sound: Frequency=3 MHz, Sing-around technique in a fixed-path interferometer; for mass density: Vibrating tube method

Compound `CCCC(=O)O` [butanoic acid] has a speed of sound ([1]; 293.15 K) of 1196 ± 2 m/s, a mass density ([1]; 293.15 K) of 957.8 ± 0.3 kg/m3 and a speed of sound ([1]; 298.15 K) of 1177 ± 2 m/s. For the same compound, the mass density ([1]; 298.15 K) was 952.8 ± 0.3 kg/m3, the speed of sound ([1]; 303.15 K) was 1158 ± 2 m/s and the mass density ([1]; 303.15 K) was 947.9 ± 0.3 kg/m3. It also gave a speed of sound ([1]; 308.15 K) of 1139 ± 2 m/s, a mass density ([1]; 308.15 K) of 942.9 ± 0.3 kg/m3 and a speed of sound ([1]; 313.15 K) of 1121 ± 2 m/s. It also gave a mass density ([1]; 313.15 K) of 938.1 ± 0.3 kg/m3, a refractive index ([2]; 293.15 K) of 1.3983 ± 0.0005 and a refractive index ([2]; 298.15 K) of 1.3963 ± 0.0005. For the same compound, the refractive index ([2]; 303.15 K) was 1.3942 ± 0.0005, the refractive index ([2]; 308.15 K) was 1.3922 ± 0.0005 and the refractive index ([2]; 313.15 K) was 1.3901 ± 0.0005.

`CCCC(=O)O` [butanoic acid] + CCCCCCC(=O)O showed a refractive index ([3]; 293.15 K, x2 = 0) of 1.3983 ± 0.0005, a refractive index ([3]; 298.15 K, x2 = 0) of 1.3963 ± 0.0005 and a refractive index ([3]; 303.15 K, x2 = 0) of 1.3942 ± 0.0005. It also gave a refractive index ([3]; 308.15 K, x2 = 0) of 1.3922 ± 0.0005, a refractive index ([3]; 313.15 K, x2 = 0) of 1.3901 ± 0.0005 and a speed of sound ([4]; 293.15 K, x2 = 0) of 1196 ± 2 m/s. It also gave a mass density ([4]; 293.15 K, x2 = 0) of 957.8 ± 0.3 kg/m3, a speed of sound ([4]; 298.15 K, x2 = 0) of 1177 ± 2 m/s and a mass density ([4]; 298.15 K, x2 = 0) of 952.8 ± 0.3 kg/m3. For the same compound, the speed of sound ([4]; 303.15 K, x2 = 0) was 1158 ± 2 m/s, the mass density ([4]; 303.15 K, x2 = 0) was 947.9 ± 0.3 kg/m3 and the speed of sound ([4]; 308.15 K, x2 = 0) was 1139 ± 2 m/s. The mass density ([4]; 308.15 K, x2 = 0) was 942.9 ± 0.3 kg/m3, the speed of sound ([4]; 313.15 K, x2 = 0) was 1121 ± 2 m/s and the mass density ([4]; 313.15 K, x2 = 0) was 938.1 ± 0.3 kg/m3.

In the case of `CCOC(=O)OCC` [diethyl carbonate], the speed of sound ([1]; 298.15 K) is reported as 1177 ± 2 m/s, the mass density ([1]; 298.15 K) is reported as 969.3 ± 0.3 kg/m3 and the refractive index ([2]; 298.15 K) is reported as 1.3825 ± 0.0005.

In the case of `CCOC(=O)OCC` [diethyl carbonate] + CCO, the refractive index ([3]; 298.15 K, x1 = 0.0415) is reported as 1.3614 ± 0.0005, the refractive index ([3]; 298.15 K, x1 = 0.0943) is reported as 1.3635 ± 0.0005 and the refractive index ([3]; 298.15 K, x1 = 0.1932) is reported as 1.367 ± 0.0005. For the same compound, the refractive index ([3]; 298.15 K, x1 = 0.2929) was 1.3698 ± 0.0005, the refractive index ([3]; 298.15 K, x1 = 0.3938) was 1.3724 ± 0.0005 and the refractive index ([3]; 298.15 K, x1 = 0.4965) was 1.3746 ± 0.0005. The refractive index ([3]; 298.15 K, x1 = 0.597) was 1.3765 ± 0.0005, the refractive index ([3]; 298.15 K, x1 = 0.6924) was 1.3781 ± 0.0005 and the refractive index ([3]; 298.15 K, x1 = 0.7911) was 1.3796 ± 0.0005. For the same compound, the refractive index ([3]; 298.15 K, x1 = 0.899) was 1.3811 ± 0.0005, the refractive index ([3]; 298.15 K, x1 = 0.9413) was 1.3817 ± 0.0005 and the refractive index ([3]; 298.15 K, x1 = 1) was 1.3825 ± 0.0005. The speed of sound ([4]; 298.15 K, x1 = 0.0415) was 1145 ± 2 m/s, the speed of sound ([4]; 298.15 K, x1 = 0.0943) was 1147 ± 2 m/s and the speed of sound ([4]; 298.15 K, x1 = 0.1932) was 1150 ± 2 m/s. It also gave a speed of sound ([4]; 298.15 K, x1 = 0.2929) of 1154 ± 2 m/s, a speed of sound ([4]; 298.15 K, x1 = 0.3938) of 1156 ± 2 m/s and a speed of sound ([4]; 298.15 K, x1 = 0.4965) of 1159 ± 2 m/s. The speed of sound ([4]; 298.15 K, x1 = 0.597) was 1162 ± 2 m/s, the speed of sound ([4]; 298.15 K, x1 = 0.6924) was 1166 ± 2 m/s and the speed of sound ([4]; 298.15 K, x1 = 0.7911) was 1169 ± 2 m/s. It also gave a speed of sound ([4]; 298.15 K, x1 = 0.899) of 1173 ± 2 m/s, a speed of sound ([4]; 298.15 K, x1 = 0.9413) of 1175 ± 2 m/s and a speed of sound ([4]; 298.15 K, x1 = 1) of 1177 ± 2 m/s. For the same compound, the mass density ([4]; 298.15 K, x1 = 0.0415) was 800.3 ± 0.5 kg/m3, the mass density ([4]; 298.15 K, x1 = 0.0943) was 817.7 ± 0.4 kg/m3 and the mass density ([4]; 298.15 K, x1 = 0.1932) was 845.9 ± 0.4 kg/m3. For the same compound, the mass density ([4]; 298.15 K, x1 = 0.2929) was 869.6 ± 0.4 kg/m3, the mass density ([4]; 298.15 K, x1 = 0.3938) was 890 ± 0.4 kg/m3 and the mass density ([4]; 298.15 K, x1 = 0.4965) was 907.8 ± 0.3 kg/m3. The mass density ([4]; 298.15 K, x1 = 0.597) was 923 ± 0.3 kg/m3, the mass density ([4]; 298.15 K, x1 = 0.6924) was 935.7 ± 0.3 kg/m3 and the mass density ([4]; 298.15 K, x1 = 0.7911) was 947.6 ± 0.3 kg/m3. The mass density ([4]; 298.15 K, x1 = 0.899) was 959.3 ± 0.3 kg/m3, the mass density ([4]; 298.15 K, x1 = 0.9413) was 963.6 ± 0.3 kg/m3 and the mass density ([4]; 298.15 K, x1 = 1) was 969.3 ± 0.3 kg/m3.

With `CCO` [ethanol] the speed of sound ([1]; 298.15 K) was 1142 ± 2 m/s, the mass density ([1]; 298.15 K) was 785.2 ± 0.3 kg/m3 and the refractive index ([2]; 298.15 K) was 1.3594 ± 0.0005.

With `CCO` [ethanol] + CCOC(=O)OCC the refractive index ([3]; 298.15 K, x2 = 0) was 1.3594 ± 0.0005, the speed of sound ([4]; 298.15 K, x2 = 0) was 1142 ± 2 m/s and the mass density ([4]; 298.15 K, x2 = 0) was 785.2 ± 0.3 kg/m3.

With `CCCCCCC(=O)O` [heptanoic acid] the speed of sound ([1]; 293.15 K) was 1295 ± 2 m/s, the mass density ([1]; 293.15 K) was 917.7 ± 0.3 kg/m3 and the speed of sound ([1]; 298.15 K) was 1278 ± 2 m/s. For the same compound, the mass density ([1]; 298.15 K) was 913.5 ± 0.3 kg/m3, the speed of sound ([1]; 303.15 K) was 1260 ± 2 m/s and the mass density ([1]; 303.15 K) was 909.3 ± 0.3 kg/m3. It also gave a speed of sound ([1]; 308.15 K) of 1242 ± 2 m/s, a mass density ([1]; 308.15 K) of 905.1 ± 0.3 kg/m3 and a speed of sound ([1]; 313.15 K) of 1225 ± 2 m/s. For the same compound, the mass density ([1]; 313.15 K) was 900.9 ± 0.3 kg/m3, the refractive index ([2]; 293.15 K) was 1.4234 ± 0.0005 and the refractive index ([2]; 298.15 K) was 1.4214 ± 0.0005. The refractive index ([2]; 303.15 K) was 1.4194 ± 0.0005, the refractive index ([2]; 308.15 K) was 1.4173 ± 0.0005 and the refractive index ([2]; 313.15 K) was 1.4153 ± 0.0005.

`CCC(=O)O` [propanoic acid] showed a speed of sound ([1]; 293.15 K) of 1166 ± 2 m/s, a mass density ([1]; 293.15 K) of 993.9 ± 0.3 kg/m3 and a speed of sound ([1]; 298.15 K) of 1147 ± 2 m/s. For the same compound, the mass density ([1]; 298.15 K) was 988.5 ± 0.3 kg/m3, the speed of sound ([1]; 303.15 K) was 1128 ± 2 m/s and the mass density ([1]; 303.15 K) was 983.1 ± 0.3 kg/m3. It also gave a speed of sound ([1]; 308.15 K) of 1109 ± 2 m/s, a mass density ([1]; 308.15 K) of 977.7 ± 0.3 kg/m3 and a speed of sound ([1]; 313.15 K) of 1090 ± 2 m/s. The mass density ([1]; 313.15 K) was 972.3 ± 0.3 kg/m3, the refractive index ([2]; 293.15 K) was 1.3865 ± 0.0005 and the refractive index ([2]; 298.15 K) was 1.3848 ± 0.0005. For the same compound, the refractive index ([2]; 303.15 K) was 1.383 ± 0.0005, the refractive index ([2]; 308.15 K) was 1.3811 ± 0.0005 and the refractive index ([2]; 313.15 K) was 1.3792 ± 0.0005.

Work on `CCC(=O)O` [propanoic acid] + CCCCCCC(=O)O yielded a refractive index ([3]; 293.15 K, x2 = 0) of 1.3865 ± 0.0005, a refractive index ([3]; 298.15 K, x2 = 0) of 1.3848 ± 0.0005 and a refractive index ([3]; 303.15 K, x2 = 0) of 1.383 ± 0.0005. For the same compound, the refractive index ([3]; 308.15 K, x2 = 0) was 1.3811 ± 0.0005, the refractive index ([3]; 313.15 K, x2 = 0) was 1.3792 ± 0.0005 and the speed of sound ([4]; 293.15 K, x2 = 0) was 1166 ± 2 m/s. For the same compound, the mass density ([4]; 293.15 K, x2 = 0) was 993.9 ± 0.3 kg/m3, the speed of sound ([4]; 298.15 K, x2 = 0) was 1147 ± 2 m/s and the mass density ([4]; 298.15 K, x2 = 0) was 988.5 ± 0.3 kg/m3. The speed of sound ([4]; 303.15 K, x2 = 0) was 1128 ± 2 m/s, the mass density ([4]; 303.15 K, x2 = 0) was 983.1 ± 0.3 kg/m3 and the speed of sound ([4]; 308.15 K, x2 = 0) was 1109 ± 2 m/s. The mass density ([4]; 308.15 K, x2 = 0) was 977.7 ± 0.3 kg/m3, the speed of sound ([4]; 313.15 K, x2 = 0) was 1090 ± 2 m/s and the mass density ([4]; 313.15 K, x2 = 0) was 972.3 ± 0.3 kg/m3.
